{
  "source": "paper PMC13534789",
  "about": "“Molecular Glue Degraders Enhance CAPRIN1‐Dependent Lysosomal Degradation of APP and Reduce Amyloid β in Alzheimer's Disease” (Advanced Science, 2026)",
  "key": {"[1]": {"test_system": "LN229 and HCT116 cells", "set-up": "method as in PMID 34644148", "details": "cited from earlier work"}, "[2]": {"target": "T1, CAPRIN1 and APP (Homo sapiens, UniProt P05067+Q14444)", "T1 construct": "endogenous in cells; host or cells: AG27606-Ns, sAD2.3-Ns (iPSC-derived neurons) and their lysates", "experiment": "Streptavidin pull-down with biotinylated 0152 in AG27606-N lysates", "type": "binding"}},
  "data": [
    {"compound": "N#Cc1ccc2nc(NC(=O)Nc3cccc(Cl)c3)sc2c1", "note": "[HB007, reference compound]", "values": [
      {"measurement": "Cancer cell growth", "setting": "[1]", "value": "inhibits cancer cell growth"},
      {"measurement": "Competition of the 0152-biotin pull-down by excess free compound", "setting": "[2]", "value": "not by the inactive analog HB007"}
    ]}
  ]
}
